pIC50: −log10 of the molar value. Converted amounts (≈) assume the structure as drawn. Some results are limits rather than exact numbers.

Assay [1] deals with T1, Enoyl-[acyl-carrier-protein] reductase [NADPH] FabI (Staphylococcus aureus) (UniProt Q6GI75).
T1 sequence (whole entry): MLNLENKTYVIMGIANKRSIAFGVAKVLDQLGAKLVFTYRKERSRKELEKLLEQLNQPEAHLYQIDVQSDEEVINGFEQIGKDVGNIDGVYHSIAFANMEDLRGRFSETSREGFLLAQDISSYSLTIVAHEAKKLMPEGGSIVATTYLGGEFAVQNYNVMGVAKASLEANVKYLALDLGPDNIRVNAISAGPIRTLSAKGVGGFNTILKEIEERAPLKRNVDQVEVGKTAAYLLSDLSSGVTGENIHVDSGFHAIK
In words: Inhibition of N-terminal his 6 tagged Staphylococcus aureus Fabi (1 to […] residues) expressed in Escherichia coli BL21 at 10 uM incubated for 30 mins in presence of NADPH by fluorescence based microplate reader analysis relative to control.

Assay [2] deals with T1, Enoyl-[acyl-carrier-protein] reductase [NADPH] FabI (Staphylococcus aureus). In words: Inhibition of N-terminal his 6 tagged Staphylococcus aureus Fabi (1 to […] residues) expressed in Escherichia coli BL21 at 1 uM incubated for 30 mins in presence of NADPH by fluorescence based microplate reader analysis relative to control.
The target of assay [3] is T2, Enoyl-[acyl-carrier-protein] reductase [NADPH] FabI (Staphylococcus aureus, UniProt Q6GI75).
T2 sequence (Q6GI75 whole entry): T1 sequence (whole entry)
In words: Inhibition of N-terminal his 6 tagged Staphylococcus aureus Fabi (1 to […] residues) expressed in Escherichia coli BL21 incubated for 30 mins in presence of NADPH by fluorescence based microplate reader analysis.

Assay [4] deals with Staphylococcus aureus. The assay can be described thus: Antimicrobial activity against […] Staphylococcus aureus ATCC33591 measured after 24 hrs by CLSI protocol based microdilution method. Format: functional. A general note: Broth dilution looks for growth in wells or tubes with falling amounts of substance.
The test system of assay [5] is Staphylococcus aureus. In words: Antimicrobial activity against […] Staphylococcus aureus ATCC43300 measured after 24 hrs by CLSI protocol based microdilution method. The class given is functional.
Assay [6] deals with Staphylococcus aureus. The assay can be described thus: Antimicrobial activity against […] Staphylococcus aureus USA300 measured after 24 hrs by CLSI protocol based microdilution method. Format: functional.
Assay [7] deals with Staphylococcus aureus. In words: Antimicrobial activity against […] Staphylococcus aureus NRS271 measured after 24 hrs by CLSI protocol based microdilution method. The class given is functional.
The test system of assay [8] is Staphylococcus aureus. The assay can be described thus: Antimicrobial activity against methicillin-susceptible Staphylococcus aureus ATCC29213 measured after 24 hrs by CLSI protocol based microdilution method. The class given is functional.
Assay [9] deals with Staphylococcus aureus. In words: Antimicrobial activity against methicillin-susceptible Staphylococcus aureus ATCC25923 measured after 24 hrs by CLSI protocol based microdilution method. The class given is functional.
In the next assay the test system is Enterococcus faecium. The assay can be described thus: Antimicrobial activity against Enterococcus faecium ATCC19434 measured after 24 hrs by CLSI protocol based microdilution method. The class given is functional.
The test system of another assay is Enterococcus faecalis. The assay can be described thus: Antimicrobial activity against Enterococcus faecalis ATCC29212 measured after 24 hrs by CLSI protocol based microdilution method. Format: functional.
Another assay relates to Pseudomonas aeruginosa. The assay can be described thus: Antimicrobial activity against Pseudomonas aeruginosa PAO1 measured after 24 hrs by CLSI protocol based microdilution method. Format: functional.
In another assay the test system is Escherichia coli. In words: Antimicrobial activity against Escherichia coli ATCC25922 measured after 24 hrs by CLSI protocol based microdilution method. The class given is functional.
A further assay deals with Acinetobacter baumannii. In words: Antimicrobial activity against Acinetobacter baumannii ATCC19606 measured after 24 hrs by CLSI protocol based microdilution method. The class given is functional.
A further assay deals with Candida albicans. In words: Antimicrobial activity against Candida albicans SC5314 measured after 48 hrs by CLSI protocol based microdilution method. The class given is functional.

Regarding `Cn1c(C2CC(=O)N(c3cccc(Cl)c3Br)C2)nc2ccccc21` (stereo not drawn), the results for the inhibition in assay [1] and in assay [2] were 95.8% and 46%, respectively. In assay [3], the pIC50 is 6.64. The MIC in the assay on Staphylococcus aureus [4] worked out at 8 µg/mL (≈ 19.8 µM); against Staphylococcus aureus [5] it was 16 µg/mL (≈ 39.5 µM); with Staphylococcus aureus [6], 6 µg/mL (≈ 14.8 µM); in the assay with Staphylococcus aureus [7], 16 µg/mL (≈ 39.5 µM); with Staphylococcus aureus [8], 8 µg/mL (≈ 19.8 µM); in the assay on Staphylococcus aureus [9] it was 16 µg/mL (≈ 39.5 µM). Further, the MIC against Enterococcus faecium, against Enterococcus faecalis, in the assay on Pseudomonas aeruginosa, in the assay on Escherichia coli, against Acinetobacter baumannii and against Candida albicans was greater than 32 µg/mL in each case.
Regarding `Cn1c(C2CC(=O)N(c3cccc(F)c3F)C2)nc2ccccc21` (stereo not drawn), the inhibition in assay [1] was 91.8%; in assay [2], 35.3%. The negative-log IC50 (pIC50) in [3] was 6.64. Besides, the MIC with Staphylococcus aureus [4] came out at 16 µg/mL (≈ 48.9 µM); with Staphylococcus aureus [5], 32 µg/mL (≈ 97.8 µM); in the assay on Staphylococcus aureus [6] it was 16 µg/mL (≈ 48.9 µM); in the assay with Staphylococcus aureus [7], 32 µg/mL (≈ 97.8 µM); in the assay on Staphylococcus aureus [8], 16 µg/mL (≈ 48.9 µM); in the assay with Staphylococcus aureus [9], 32 µg/mL (≈ 97.8 µM). Also, the MIC against Enterococcus faecium, in the assay with Enterococcus faecalis, in the assay on Pseudomonas aeruginosa, with Escherichia coli, in the assay on Acinetobacter baumannii and against Candida albicans was greater than 32 µg/mL in each case.
On to `Cn1c(C2CC(=O)N(c3ccc(O)c(O)c3)C2)nc2ccccc21` (stereo not drawn), for which the inhibition in [1] was found to be 70.4%; in [2] it was 10.7%. For the same compound, in assay [3], the pIC50 is 5.28. Moreover, the MIC against Staphylococcus aureus [4], with Staphylococcus aureus [5], against Staphylococcus aureus [6], in the assay with Staphylococcus aureus [7], in the assay on Staphylococcus aureus [8] and against Staphylococcus aureus [9] was greater than 32 µg/mL in each case. The MIC in the assay with Enterococcus faecium, in the assay on Enterococcus faecalis, in the assay on Pseudomonas aeruginosa, against Escherichia coli, with Acinetobacter baumannii and against Candida albicans was greater than 32 µg/mL in each case.
With `Cn1c(C2CC(=O)N(c3cccc(Br)c3O)C2)nc2ccccc21` (stereo not drawn), the inhibition turned out to be 94.1% in [1] and 28.5% in [2]. Also, in assay [3], the pIC50 was 5.73. The MIC against Staphylococcus aureus [4] was found to be 16 µg/mL (≈ 41.4 µM); with Staphylococcus aureus [5], 16 µg/mL (≈ 41.4 µM); against Staphylococcus aureus [6], 16 µg/mL (≈ 41.4 µM); in the assay with Staphylococcus aureus [7] it was 32 µg/mL (≈ 82.8 µM); against Staphylococcus aureus [8] it was 16 µg/mL (≈ 41.4 µM); with Staphylococcus aureus [9], 32 µg/mL (≈ 82.8 µM). Further, the MIC in the assay with Enterococcus faecium, against Enterococcus faecalis, against Pseudomonas aeruginosa, against Escherichia coli, with Acinetobacter baumannii and against Candida albicans was greater than 32 µg/mL each time.
`Cn1c(C2CC(=O)N(c3cccc(Cl)c3F)C2)nc2ccccc21` (stereo not drawn): the inhibition came to 97.9% in assay [1] and 65.4% in [2]. In [3], the negative-log IC50 (pIC50) is 6.24. Further, the MIC turned out to be 4 µg/mL (≈ 11.6 µM) in the assay with Staphylococcus aureus [4]; 4 µg/mL (≈ 11.6 µM) against Staphylococcus aureus [5]; 8 µg/mL (≈ 23.3 µM) in the assay on Staphylococcus aureus [6]; 8 µg/mL (≈ 23.3 µM) in the assay with Staphylococcus aureus [7]; 4 µg/mL (≈ 11.6 µM) against Staphylococcus aureus [8]; 4 µg/mL (≈ 11.6 µM) in the assay with Staphylococcus aureus [9]. The minimum inhibitory concentration (MIC) with Enterococcus faecium, in the assay with Enterococcus faecalis, against Pseudomonas aeruginosa, in the assay on Escherichia coli, in the assay with Acinetobacter baumannii and with Candida albicans was greater than 32 µg/mL each time.
On to `Cn1c(C2CC(=O)N(c3ccc(F)c(F)c3)C2)nc2ccccc21` (stereo not drawn), for which the inhibition in [1] was determined as 40.1%; in assay [2], 2.7%. The minimum inhibitory concentration (MIC) in the assay on Staphylococcus aureus [4], in the assay with Staphylococcus aureus [5], against Staphylococcus aureus [6], against Staphylococcus aureus [7], in the assay on Staphylococcus aureus [8] and in the assay on Staphylococcus aureus [9] was greater than 32 µg/mL in each case. For the same compound, the MIC with Enterococcus faecium, against Enterococcus faecalis, in the assay on Pseudomonas aeruginosa, against Escherichia coli, with Acinetobacter baumannii and in the assay on Candida albicans was greater than 32 µg/mL throughout.
Consider `Cc1cccc(N2CCC(c3nc4ccccc4n3C)C2)c1C` (stereo not drawn), for which the inhibition in [1] came out at 6.2%; in assay [2], 5.4%. In addition, the MIC with Staphylococcus aureus [4], against Staphylococcus aureus [5], in the assay on Staphylococcus aureus [6], in the assay with Staphylococcus aureus [7], against Staphylococcus aureus [8] and against Staphylococcus aureus [9] was greater than 32 µg/mL each time. The MIC against Enterococcus faecium, against Enterococcus faecalis, in the assay on Pseudomonas aeruginosa, against Escherichia coli, in the assay on Acinetobacter baumannii and with Candida albicans was greater than 32 µg/mL in each case.
Consider `Cn1c(C(=O)NCCC(=O)NCc2ccccc2)nc2ccccc21`, for which the inhibition in assay [1] stood at 8.6%; in assay [2], 5.7%. Besides, the MIC against Staphylococcus aureus [4], with Staphylococcus aureus [5], against Staphylococcus aureus [6], in the assay with Staphylococcus aureus [7], in the assay on Staphylococcus aureus [8] and in the assay on Staphylococcus aureus [9] was greater than 32 µg/mL throughout. Further, the MIC in the assay on Enterococcus faecium, in the assay on Enterococcus faecalis, against Pseudomonas aeruginosa, against Escherichia coli, against Acinetobacter baumannii and in the assay with Candida albicans was greater than 32 µg/mL each time.
As to `CC(=O)c1ccc(N2CC(c3nc4ccccc4n3C)CC2=O)cc1` (stereo not drawn), the inhibition was determined as 10.1% in [1] and 2.8% in assay [2]. Moreover, the MIC with Staphylococcus aureus [4], against Staphylococcus aureus [5], with Staphylococcus aureus [6], in the assay on Staphylococcus aureus [7], against Staphylococcus aureus [8] and with Staphylococcus aureus [9] was greater than 32 µg/mL each time. The MIC against Enterococcus faecium, in the assay on Enterococcus faecalis, against Pseudomonas aeruginosa, against Escherichia coli, with Acinetobacter baumannii and in the assay on Candida albicans was greater than 32 µg/mL in each case.
For the compound `Cn1c(C2CC(=O)N(c3ccc4ccccc4c3)C2)nc2ccccc21` (stereo not drawn), the inhibition in assay [1] is 51.7%; in assay [2], 2.8%. Besides, the MIC with Staphylococcus aureus [4], against Staphylococcus aureus [5], against Staphylococcus aureus [6], against Staphylococcus aureus [7], against Staphylococcus aureus [8] and in the assay with Staphylococcus aureus [9] was greater than 32 µg/mL in each case. Further, the MIC with Enterococcus faecium, in the assay with Enterococcus faecalis, against Pseudomonas aeruginosa, against Escherichia coli, against Acinetobacter baumannii and with Candida albicans was greater than 32 µg/mL in each case.
As for `Cn1c(C2CC(=O)N(c3cccc(-c4ccccc4)c3)C2)nc2ccccc21` (stereo not drawn), the figures for the inhibition in assay [1] and in assay [2] were 10.1% and 3.5%, respectively. The MIC with Staphylococcus aureus [4], with Staphylococcus aureus [5], in the assay on Staphylococcus aureus [6], with Staphylococcus aureus [7], against Staphylococcus aureus [8] and with Staphylococcus aureus [9] was greater than 32 µg/mL throughout. For the same compound, the MIC in the assay with Enterococcus faecium, in the assay on Enterococcus faecalis, against Pseudomonas aeruginosa, in the assay on Escherichia coli, in the assay on Acinetobacter baumannii and in the assay with Candida albicans was greater than 32 µg/mL each time.
As to `Cc1c(N)cccc1N1CC(c2nc3ccccc3n2C)CC1=O` (stereo not drawn), the inhibition is 50.2% in assay [1] and 6.1% in [2]. In addition, the MIC against Staphylococcus aureus [4], against Staphylococcus aureus [5], with Staphylococcus aureus [6], in the assay on Staphylococcus aureus [7], in the assay on Staphylococcus aureus [8] and with Staphylococcus aureus [9] was greater than 32 µg/mL throughout. The MIC in the assay on Enterococcus faecium, against Enterococcus faecalis, against Pseudomonas aeruginosa, against Escherichia coli, with Acinetobacter baumannii and in the assay with Candida albicans was greater than 32 µg/mL in each case.

Usually inhibition stands for the relative decrease from the control value, in per cent. A word on the pIC50: it is the negative decadic logarithm of the IC50, by convention in mol/L. The term MIC denotes the lowest concentration that inhibits growth of the organism.
